The record followed here is ChEMBL document CHEMBL4414674, “Paraconiothins A-J: Sesquiterpenoids from the Endophytic Fungus Paraconiothyrium brasiliense ECN258” (J Nat Prod, 2019).

What all share (format): cell-based
Data set [1] has as its target T1, Retinoic acid receptor alpha (Homo sapiens) (UniProt P10276).
T1 sequence (whole entry): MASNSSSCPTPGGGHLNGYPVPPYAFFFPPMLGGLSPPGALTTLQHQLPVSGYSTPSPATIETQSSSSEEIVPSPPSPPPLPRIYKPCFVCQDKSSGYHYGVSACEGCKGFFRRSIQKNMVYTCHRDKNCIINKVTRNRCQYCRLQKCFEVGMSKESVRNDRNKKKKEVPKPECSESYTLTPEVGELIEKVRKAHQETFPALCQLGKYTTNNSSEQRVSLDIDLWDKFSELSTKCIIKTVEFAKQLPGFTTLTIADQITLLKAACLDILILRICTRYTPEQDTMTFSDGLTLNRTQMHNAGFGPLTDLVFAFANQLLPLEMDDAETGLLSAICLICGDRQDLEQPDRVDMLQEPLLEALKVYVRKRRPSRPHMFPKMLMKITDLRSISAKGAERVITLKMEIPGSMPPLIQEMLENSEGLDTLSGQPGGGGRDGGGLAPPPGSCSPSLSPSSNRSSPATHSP
Kind of data set: Inhibition of human RARalpha transfected in human HEK293 cells co-expressing CMV-beta galactosidase assessed as effect on beta-galactosidase activity at 50 uM after 48 hrs by luciferase reporter gene assay. Background: A reporter such as luciferase makes a cellular process visible.

The target in data set [2] is T2, Peroxisome proliferator-activated receptor gamma (Homo sapiens) (UniProt P37231).
T2 sequence (whole entry): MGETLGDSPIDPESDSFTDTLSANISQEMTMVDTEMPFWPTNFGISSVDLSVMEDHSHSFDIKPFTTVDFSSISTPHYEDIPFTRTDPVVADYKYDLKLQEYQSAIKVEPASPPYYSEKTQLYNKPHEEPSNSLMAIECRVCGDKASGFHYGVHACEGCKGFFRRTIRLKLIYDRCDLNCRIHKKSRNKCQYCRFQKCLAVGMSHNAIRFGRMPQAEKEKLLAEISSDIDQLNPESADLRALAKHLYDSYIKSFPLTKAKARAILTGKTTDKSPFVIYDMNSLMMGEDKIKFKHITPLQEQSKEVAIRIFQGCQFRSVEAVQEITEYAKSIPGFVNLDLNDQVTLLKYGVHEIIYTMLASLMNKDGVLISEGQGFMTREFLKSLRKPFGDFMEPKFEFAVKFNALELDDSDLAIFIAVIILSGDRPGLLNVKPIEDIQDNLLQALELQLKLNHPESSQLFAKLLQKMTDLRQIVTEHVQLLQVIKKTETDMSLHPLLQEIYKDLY
Kind of data set: Inhibition of PPARgamma (unknown origin) transfected in human HEK293 cells co-expressing CMV-beta galactosidase assessed as effect on beta-galactosidase activity at 50 uM after 48 hrs by luciferase reporter gene assay.

Data set [3] has as its target T3, Peroxisome proliferator-activated receptor delta (Homo sapiens) (UniProt Q03181).
T3 sequence (whole entry): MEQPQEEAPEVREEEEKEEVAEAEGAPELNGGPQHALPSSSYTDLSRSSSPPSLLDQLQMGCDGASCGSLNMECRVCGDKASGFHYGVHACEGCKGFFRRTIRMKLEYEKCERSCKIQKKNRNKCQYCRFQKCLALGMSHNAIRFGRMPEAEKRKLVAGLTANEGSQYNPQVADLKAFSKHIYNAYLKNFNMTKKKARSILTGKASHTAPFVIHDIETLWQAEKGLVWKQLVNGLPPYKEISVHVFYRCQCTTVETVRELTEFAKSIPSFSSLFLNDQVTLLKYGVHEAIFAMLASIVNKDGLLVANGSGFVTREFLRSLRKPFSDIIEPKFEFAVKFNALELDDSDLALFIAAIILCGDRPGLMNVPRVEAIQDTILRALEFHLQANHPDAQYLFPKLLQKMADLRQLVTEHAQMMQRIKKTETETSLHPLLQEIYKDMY
Kind of data set: Inhibition of PPARdelta (unknown origin) transfected in human HEK293 cells co-expressing CMV-beta galactosidase assessed as effect on beta-galactosidase activity at 50 uM after 48 hrs by luciferase reporter gene assay.

Data set [4] has as its target T4, Oxysterols receptor LXR-alpha (Homo sapiens) (UniProt Q13133).
T4 sequence (whole entry): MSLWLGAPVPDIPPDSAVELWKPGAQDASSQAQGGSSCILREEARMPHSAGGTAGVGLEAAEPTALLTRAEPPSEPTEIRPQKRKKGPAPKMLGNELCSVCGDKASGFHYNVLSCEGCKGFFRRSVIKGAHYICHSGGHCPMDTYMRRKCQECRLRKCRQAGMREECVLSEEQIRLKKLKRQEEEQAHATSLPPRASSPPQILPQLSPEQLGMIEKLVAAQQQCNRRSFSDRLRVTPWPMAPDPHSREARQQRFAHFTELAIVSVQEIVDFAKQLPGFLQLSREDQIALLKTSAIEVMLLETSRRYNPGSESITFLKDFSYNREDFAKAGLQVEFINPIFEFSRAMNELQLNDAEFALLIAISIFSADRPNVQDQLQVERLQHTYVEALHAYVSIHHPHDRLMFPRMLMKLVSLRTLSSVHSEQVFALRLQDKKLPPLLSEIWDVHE
Kind of data set: Inhibition of human LXRalpha transfected in human HEK293 cells co-expressing CMV-beta galactosidase assessed as inhibition on T0901317 response at 50 uM after 48 hrs by luciferase reporter gene assay.

Data set [5] concerns HEK293. Nature of the data set: Cytotoxicity against human HEK293 cells.

Each structure is given as a SMILES string. Activity calls are given as the source filed them. The calls are words filed in the database; no cut-off is given here.

For `C=C(CO)[C@@]12O[C@@H]1[C@@]1(C)C(=C[C@@H]2O)C=C[C@@H](O)[C@@H]1C`, the inhibition result in data set [1], in data set [2] and in data set [3] was “inactive” each time.
As for `C=C(CO)[C@H]1CC=C2CC[C@@H](O)[C@H](C)[C@@]2(C)C1`, in data set [4], the inhibition result was “Active”. Moreover, the Activity result in data set [5] is “Non-Toxic”. The inhibition entry in data set [1], in data set [2] and in data set [3] was “inactive” in each case.
`C=C(CO)[C@@]12O[C@@H]1[C@@]1(C)C(=C[C@@H]2O)[C@H](O)CC[C@@H]1C`: the inhibition entry in data set [1], in data set [2] and in data set [3] was “inactive” throughout.
Consider `C=C(CO)[C@@H]1CC=C2C[C@@H](O)[C@H](O)[C@@H](C)[C@]2(C)C1` (relative stereo), for which the inhibition result in data set [1], in data set [2] and in data set [3] was “inactive” throughout.
With `C=C(CO)[C@]12O[C@H]1[C@]1(C)C(=C[C@H]2OC(C)=O)CCC[C@H]1C`, the inhibition result in data set [1], in data set [2] and in data set [3] was “inactive” each time.
`C=C(CO)c1ccc2c(c1C)[C@@H](C)C[C@H](O)C2=O`: the inhibition result in data set [1], in data set [2] and in data set [3] was “inactive” in each case.
In the case of `C=C(CO)[C@H]1C[C@@]2(C)C(=C[C@@H]1O)C[C@H](O)C[C@@H]2C`, the inhibition result in data set [1], in data set [2] and in data set [3] was “inactive” throughout.
For the compound `C=C(CO)[C@@]12O[C@@H]1[C@@]1(C)C(=C[C@@H]2OC(C)=O)CC[C@@H](O)[C@@H]1C` (relative stereo), the inhibition result in data set [1], in data set [2] and in data set [3] was “inactive” each time.
For `C=C(CO)[C@@]12O[C@@H]1[C@@]1(C)C(=CC2=O)C[C@H](O)C[C@@H]1C`, the inhibition result in data set [1], in data set [2] and in data set [3] was “inactive” in each case.
Turning to `C[C@H]1CC(=O)C=C2C=CC(=C(CO)CO)[C@H](O)[C@@]21C`, the inhibition result in data set [1], in data set [2] and in data set [3] was “inactive” each time.
As to `C=C(CO)[C@@]12O[C@@H]1[C@@]1(C)C(=C[C@@H]2OC(C)=O)C=C[C@@H](O)[C@@H]1C`, the inhibition entry in data set [1], in data set [2] and in data set [3] was “inactive” each time.
For the compound `C=C(CO)c1ccc([C@@H](O)[C@H](O)/C=C/C)c(C)c1` (relative stereo), the inhibition entry in data set [1], in data set [2] and in data set [3] was “inactive” in each case.
For `C=C(CO)c1ccc([C@@H](C)C[C@@H](O)CO)c(C)c1` (relative stereo), in data set [4], the inhibition result was “Active”. For the same compound, the Activity result in data set [5] is reported as “Non-Toxic”. Moreover, the inhibition entry in data set [1], in data set [2] and in data set [3] was “inactive” throughout.
